Each block holds one compound with its values, some of them ahead of it.
Key:
Assay type in all cases: cell-based
[1] = target: T1, polypeptide identified herein as SEQ ID NO: 2 (hT2R44) (Homo sapiens, UniProt P59541, F252L); assay: Bitterness antagonism: PMFs antagonizing limonin on cells expressing the receptor; conditions: limonin 25 μM
T1 construct: expressed in transfected cells; host or cells: cells expressing a promiscuous G protein (G16g44)
T1 sequence (P59541 1-319 F252L): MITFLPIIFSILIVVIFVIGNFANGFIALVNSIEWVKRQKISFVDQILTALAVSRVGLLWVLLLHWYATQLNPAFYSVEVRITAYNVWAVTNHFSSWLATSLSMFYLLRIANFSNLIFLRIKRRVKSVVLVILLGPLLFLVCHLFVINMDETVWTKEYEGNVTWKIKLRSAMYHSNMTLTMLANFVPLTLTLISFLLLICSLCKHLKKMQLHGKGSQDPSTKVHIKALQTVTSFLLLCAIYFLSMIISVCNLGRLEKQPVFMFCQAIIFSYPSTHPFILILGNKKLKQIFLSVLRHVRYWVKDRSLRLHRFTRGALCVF
Procedure: (§1) Cells expressing a promiscuous G protein (G16g44) were transfected using TransIT-293 (Mirus) with expression vectors encoding 22 functional biter receptor cDNAs, with one receptor per transfection. The cells were transfected directly in 384-well format high-density plates and incubated for 28 hours. Later, cells were loaded with the Ca-specific dye Fluo4-AM. After an incubation of 60 minutes, excess dye is washed off, and cells are stimulated with respective bitter agonists while simultaneously recording changes in intracellular fluorescence using a FLIPR instrument. Bitter agonist and responding receptors were identified and respective stable bitter receptor cell lines were then used in the same assay to perform full dose-response analysis with the respective bitter agonists.
Certain PMFs were tested for their ability to antagonize binding of limonin to cells expressing the polypeptide identified herein as SEQ ID NO: 2.

SEQ ID NO: 1 (hT2R80) = target: T2, SEQ ID NO: 1 (hT2R80) (Homo sapiens, UniProt Q9NYW2); assay: Bitter receptor identification, FLIPR calcium assay with bitter agonist; conditions: concentration range of 12.5 μM to 50 μM; cells expressing SEQ ID NO: 1
T2 construct: expressed in transfected cells; host or cells: cells expressing a promiscuous G protein (G16g44)
T2 sequence (Q9NYW2 1-309): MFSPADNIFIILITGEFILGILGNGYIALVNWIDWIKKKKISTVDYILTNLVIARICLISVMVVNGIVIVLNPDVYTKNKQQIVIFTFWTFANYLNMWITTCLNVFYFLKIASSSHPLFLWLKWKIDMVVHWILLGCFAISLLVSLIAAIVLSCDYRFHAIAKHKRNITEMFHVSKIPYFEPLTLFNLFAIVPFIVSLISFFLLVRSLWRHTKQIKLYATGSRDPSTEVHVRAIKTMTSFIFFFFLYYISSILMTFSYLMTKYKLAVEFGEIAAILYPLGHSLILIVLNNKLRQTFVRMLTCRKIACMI
Procedure: as §1, with “([…])” for “(G16g44)”, “agonists. The above protocol was carried out using limonin as a non-limiting example of a bitter agonist. […] The five expressed receptor proteins correspond to the amino acid sequences identified herein as SEQ ID NO: 1, 2, 3, 4, and 5.” for “agonists.”

SEQ ID NO: 2 (hT2R44) = target: T3, SEQ ID NO: 2 (hT2R44) (Homo sapiens, UniProt P59541, F252L); assay: as above; conditions: concentration range of 12.5 μM to 50 μM; cells expressing SEQ ID NO: 2
T3 construct: expressed in transfected cells; host or cells: cells expressing a promiscuous G protein (G16g44)
T3 sequence (P59541 1-319 F252L): T1 sequence (P59541 1-319 F252L)
Procedure: as §1, with “([…])” for “(G16g44)”, “agonists. The above protocol was carried out using limonin as a non-limiting example of a bitter agonist. […] The five expressed receptor proteins correspond to the amino acid sequences identified herein as SEQ ID NO: 1, 2, 3, 4, and 5.” for “agonists.”

SEQ ID NO: 3 (hT2R51) = target: T4, SEQ ID NO: 3 (hT2R51) (Homo sapiens, UniProt P59533, A49P/I296V); assay: as above; conditions: concentration range of 12.5 μM to 50 μM; cells expressing SEQ ID NO: 3
T4 construct: expressed in transfected cells; host or cells: cells expressing a promiscuous G protein (G16g44)
T4 sequence (P59533 1-333 A49P/I296V): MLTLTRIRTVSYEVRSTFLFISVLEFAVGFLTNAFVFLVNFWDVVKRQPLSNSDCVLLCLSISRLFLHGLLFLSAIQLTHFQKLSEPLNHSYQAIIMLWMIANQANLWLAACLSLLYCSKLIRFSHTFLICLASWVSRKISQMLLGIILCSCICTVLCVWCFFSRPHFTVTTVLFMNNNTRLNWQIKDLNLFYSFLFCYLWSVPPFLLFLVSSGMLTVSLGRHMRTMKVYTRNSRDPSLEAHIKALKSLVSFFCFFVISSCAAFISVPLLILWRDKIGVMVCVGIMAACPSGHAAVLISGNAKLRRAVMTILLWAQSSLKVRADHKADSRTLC
Procedure: as §1, with “([…])” for “(G16g44)”, “agonists. The above protocol was carried out using limonin as a non-limiting example of a bitter agonist. […] The five expressed receptor proteins correspond to the amino acid sequences identified herein as SEQ ID NO: 1, 2, 3, 4, and 5.” for “agonists.”

SEQ ID NO: 4 (hT2R65) = target: T5, SEQ ID NO: 4 (hT2R65) (Homo sapiens, UniProt P59542, V32I); assay: as above; conditions: concentration range of 12.5 μM to 50 μM; cells expressing SEQ ID NO: 4
T5 construct: expressed in transfected cells; host or cells: cells expressing a promiscuous G protein (G16g44)
T5 sequence (P59542 1-299 V32I): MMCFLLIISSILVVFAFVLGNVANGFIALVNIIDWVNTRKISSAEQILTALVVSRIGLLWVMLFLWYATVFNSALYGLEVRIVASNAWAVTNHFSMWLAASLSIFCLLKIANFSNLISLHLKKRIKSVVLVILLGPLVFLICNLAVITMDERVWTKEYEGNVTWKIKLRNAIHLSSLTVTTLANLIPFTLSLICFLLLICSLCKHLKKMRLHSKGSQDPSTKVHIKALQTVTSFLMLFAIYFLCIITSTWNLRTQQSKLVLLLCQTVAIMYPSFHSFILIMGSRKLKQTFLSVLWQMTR
Procedure: as §1, with “([…])” for “(G16g44)”, “agonists. The above protocol was carried out using limonin as a non-limiting example of a bitter agonist. […] The five expressed receptor proteins correspond to the amino acid sequences identified herein as SEQ ID NO: 1, 2, 3, 4, and 5.” for “agonists.”

SEQ ID NO: 5 (hT2R75) = target: T6, SEQ ID NO: 5 (hT2R75) (Homo sapiens, UniProt P59540); assay: as above; conditions: concentration range of 12.5 μM to 50 μM; cells expressing SEQ ID NO: 5
T6 construct: expressed in transfected cells; host or cells: cells expressing a promiscuous G protein (G16g44)
T6 sequence (P59540 1-309): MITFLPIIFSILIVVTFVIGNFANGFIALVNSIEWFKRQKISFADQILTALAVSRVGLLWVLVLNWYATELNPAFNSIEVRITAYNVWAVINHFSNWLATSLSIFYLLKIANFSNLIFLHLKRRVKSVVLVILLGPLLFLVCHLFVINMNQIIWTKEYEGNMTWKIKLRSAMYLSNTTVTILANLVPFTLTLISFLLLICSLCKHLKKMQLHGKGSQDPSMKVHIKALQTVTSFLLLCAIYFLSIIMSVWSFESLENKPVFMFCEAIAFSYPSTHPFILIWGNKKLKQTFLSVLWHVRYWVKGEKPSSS
Procedure: as §1, with “([…])” for “(G16g44)”, “agonists. The above protocol was carried out using limonin as a non-limiting example of a bitter agonist. […] The five expressed receptor proteins correspond to the amino acid sequences identified herein as SEQ ID NO: 1, 2, 3, 4, and 5.” for “agonists.”

[2] = antagonist 200 μM (no antagonist: 98)

% Limonin Activation [1, 2]: 79%
SMILES: COc1ccc(-c2oc3c(OC)c(OC)c(OC)c(OC)c3c(=O)c2OC)cc1OC

% Limonin Activation ([1]; antagonist 100 μM (no antagonist: 98)): 77%
SMILES: COc1ccc(-c2oc3cc(OC)c(OC)c(OC)c3c(=O)c2OC)cc1OC

% Limonin Activation [1, 2]: 74%
SMILES: COc1ccc(-c2cc(=O)c3c(OC)c(OC)c(OC)c(OC)c3o2)cc1OC

% Limonin Activation [1, 2]: 70%
SMILES: COc1ccc(-c2cc(=O)c3c(OC)c(OC)c(OC)cc3o2)cc1OC

% Limonin Activation ([1]; antagonist 50 μM (no antagonist: 98)): 76%
SMILES: COc1ccc(-c2cc(=O)c3c(OC)c(OC)c(OC)c(OC)c3o2)cc1

% Limonin Activation [1, 2]: 64%
SMILES: COc1cc(-c2cc(=O)c3c(OC)c(OC)c(OC)cc3o2)ccc1O

dose response of receptor to bitter agonist (SEQ ID NO: 1 (hT2R80)): positive dose response
dose response of receptor to bitter agonist (SEQ ID NO: 2 (hT2R44)): positive dose response
dose response of receptor to bitter agonist (SEQ ID NO: 3 (hT2R51)): positive dose response
dose response of receptor to bitter agonist (SEQ ID NO: 4 (hT2R65)): positive dose response
dose response of receptor to bitter agonist (SEQ ID NO: 5 (hT2R75)): positive dose response
SMILES: CC1(C)O[C@H]2CC(=O)OC[C@]23[C@H]2CC[C@@]4(C)[C@H](c5ccoc5)OC(=O)[C@H]5O[C@]54[C@]2(C)C(=O)C[C@@H]13 [limonin]

From patent US20220236254A1, “BITTER TASTE RECEPTOR BLOCKERS AND METHODS OF THEIR IDENTIFICATION” (Firmenich Incorporated, priority 2019, published 2022)
